# Several values for one entry are separate records, joined by “and”; a condition that tells them apart may be missing. Equal entries are not always repeated.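 96-well plates; 48 h exposure; 5 concentrations. Endpoints by linear interpolation between flanking doses. Not reached: highest tested concentration assigned. Abbreviation: GI50, concentration required for 50% inhibition of growth. TGI denotes the concentration required for complete inhibition of growth.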
# Key:
# Experiment in all cases: NCI tumour cell line growth inhibition, 48 h
# K-562 leukemia = tested on: K-562 leukemia
# NCI-H460 lung = tested on: NCI-H460 lung
# A498 renal = tested on: A498 renal
# NCI-H23 lung = tested on: NCI-H23 lung
# U251 CNS = tested on: U251 CNS
# MCF7 breast = tested on: MCF7 breast
# COLO 205 colon = tested on: COLO 205 colon
# NCI-H522 lung = tested on: NCI-H522 lung
# SNB-75 CNS = tested on: SNB-75 CNS
# IGROV1 ovarian = tested on: IGROV1 ovarian
Structure (SMILES),GI50 (K-562 leukemia) [µM],TGI (K-562 leukemia),GI50 (NCI-H460 lung),TGI (NCI-H460 lung),GI50 (A498 renal),TGI (A498 renal),GI50 (NCI-H23 lung),TGI (NCI-H23 lung),GI50 (U251 CNS),TGI (U251 CNS),GI50 (MCF7 breast) [µM],TGI (MCF7 breast),GI50 (COLO 205 colon),TGI (COLO 205 colon),GI50 (NCI-H522 lung) [µM],TGI (NCI-H522 lung),GI50 (SNB-75 CNS),TGI (SNB-75 CNS),GI50 (IGROV1 ovarian),TGI (IGROV1 ovarian)
O=c1c(Oc2ccc(F)cc2F)cc2cnc(NC3CCOCC3)nc2n1C1CC1,> 25,> 25 µM,> 25 µM,> 25 µM,2.72 µM,> 25 µM,> 25 µM,> 25 µM,> 25 µM,> 25 µM,> 25,> 25 µM,> 25 µM,> 25 µM,> 25,> 25 µM,> 25 µM,> 25 µM,> 25 µM,> 25 µM
CCCCCCCCCCCCOC1C(C(COC2OC(C(O)CO)C3OC(C)(C)OC23)OC(=O)Nc2ccccc2)OC2OC(C)(C)OC21 (centres undefined),3.44,16.9 µM,3.88 µM,13.3 µM,12.4 µM,25.1 µM,7.39 µM,19.6 µM,5.44 µM,18 µM,3.85,13.6 µM,5.51 µM,16.6 µM,9.89,29.2 µM,5.2 µM,16.9 µM,4.94 µM,15.3 µM
COc1nc(N)nc2nc[nH]c12,> 800,> 1000 µM,674 µM and 588 µM,500 µM and 800 µM and > 1000 µM,306 µM and 335 µM,500 µM and 800 µM and 691 µM,> 800 µM and 888 µM,> 1000 µM,> 800 µM and 741 µM,500 µM and > 800 µM and > 1000 µM,604,500 µM and > 1000 µM,> 1000 µM,419 µM and > 800 µM and > 1000 µM,554,500 µM and 800 µM and > 917 µM,275 µM and 263 µM,342 µM and 679 µM and > 929 µM,460 µM and 529 µM,454 µM and 800 µM and > 1000 µM
O=C1NC(c2ccccc2Cl)Nc2ccccc21 (centres undefined),–,> 30.4 µM,–,> 100 µM,–,> 100 µM,–,> 100 µM,–,> 69.7 µM,–,> 100 µM,–,> 54.1 µM,–,72.1 µM,–,49.1 µM,–,> 100 µM
O=C1NC(=NCc2cccs2)O/C1=C\c1ccc2ncccc2c1,7.31,> 25 µM,6.62 µM,> 25 µM,0.606 µM,4.81 µM,7.9 µM,> 25 µM,5.07 µM,> 18.8 µM,5.02,23.7 µM,5.2 µM,12.8 µM,2,8.34 µM,1.72 µM,8.08 µM,3.51 µM,10.5 µM
C#CCCCCCC(=O)N[C@H]1C=C[C@@H]2/C=C(C)/C=C/[C@@H](C)[C@H]([C@H](C)[C@H](O)[C@@H](C)NC(C)=O)OC(=O)/C=C/C=C(C)\C=C\[C@]2(C)C1,< 0.004,> 40 µM,< 0.004 µM,> 40 µM,0.0046 µM,0.0383 µM,0.0942 µM,> 40 µM,< 0.004 µM,> 40 µM,< 0.004,> 40 µM,0.00414 µM,4.06 µM,0.0091,14.2 µM,0.0127 µM,> 40 µM,0.00681 µM,> 40 µM
OCc1ccc(N2CCc3ccc(F)cc3C2)cc1Cl,0.159,19.6 µM,0.0872 µM,0.532 µM,0.0173 µM,0.0751 µM,1.86 µM,21 µM,0.124 µM,8.57 µM,0.137,11 µM,0.121 µM,0.36 µM,12.6,26.2 µM,11.5 µM,25.3 µM,0.0202 µM,0.124 µM
O=S(=O)(Nc1ccccc1)c1ccc(C2CC3(Cl)C(Cl)=C(Cl)C2(Cl)C3(Cl)Cl)cc1 (centres undefined),2.51,9.84 µM,1.96 µM,3.72 µM,2.32 µM,6.29 µM,2.8 µM,7.35 µM,2.25 µM,5.52 µM,2.59,7.67 µM,1.98 µM,3.48 µM,2.27,5.67 µM,2.61 µM,9.09 µM,2.24 µM,5.13 µM
COc1cc2c(cc1OCCN1CCN(CCN3C(=O)c4cccc5cccc(c45)C3=O)CC1)N=C[C@@H]1CCCN1C2=O,25.2,57.7 µM,18.1 µM,42.8 µM,20.5 µM,40.4 µM,13 µM,25.6 µM,16.1 µM,34.1 µM,15.8,32.4 µM,24.8 µM,44.8 µM,18.8,34.8 µM,20.4 µM,37.5 µM,19.2 µM,36.9 µM
Cc1ccc(-c2nc([P+](c3ccccc3)(c3ccccc3)c3ccccc3)c(N3CCOCC3)o2)cc1,0.331,4.87 µM,0.468 µM,10.8 µM,0.881 µM,4.5 µM,0.456 µM,7.45 µM,0.313 µM,11.9 µM,0.316,2.18 µM,0.343 µM,1.68 µM,0.371,7.39 µM,0.194 µM,1.11 µM,0.419 µM,4.11 µM
O=C1NC(=O)C2C3C=CC(C12)C1C2C(=O)NC(=O)C2C31 (centres undefined),137,250 µM and > 1000 µM,47 µM and 74.4 µM,203 µM and > 1000 µM,467 µM,250 µM and > 1000 µM,727 µM,250 µM and > 1000 µM,–,244 µM and > 1000 µM,537,250 µM and > 1000 µM,> 62.6 µM and 108 µM,198 µM and > 892 µM,261,235 µM and 864 µM,291 µM,249 µM and > 856 µM,> 770 µM,248 µM and > 1000 µM
Cn1cc(-c2ccc3c(c2)ncn3-c2cc(NS(=O)(=O)C3CC3)cc(-c3ccc(F)cc3F)c2)cn1,4.31,72.1 µM,23.4 µM,> 100 µM,0.074 µM,0.542 µM,20.6 µM,> 100 µM,3.77 µM,> 100 µM,4.37,92.6 µM,24.8 µM,> 100 µM,10.6,64.9 µM,0.59 µM,8.28 µM,3.49 µM,61.9 µM

# — PubChem BioAssay (NCI)
